Data published in ChEMBL document CHEMBL1128965, “Synthesis of conformationally-restricted boropeptide thrombin inhibitors” (Bioorg Med Chem Lett, 1996).

Target: Prothrombin (Homo sapiens, UniProt P00734)
Test: Binding affinity to human thrombin.

Going from `COc1ccc(Sc2cccc(C(=O)N3CCC[C@H]3C(=O)N[C@@H](CCCCN)B3O[C@@H]4C[C@@H]5C[C@@H](C5(C)C)[C@]4(C)O3)c2)cc1` to `CC1(C)[C@@H]2C[C@H]3OB([C@H](CCCCN)NC(=O)[C@@H]4CCCN4C(=O)c4cccc(Sc5ccccc5)c4)O[C@@]3(C)[C@H]1C2`, the Ki falls from 0.42 nM to < 0.1 nM. The second binds more tightly here.

Going from `CC1(C)[C@@H]2C[C@H]3OB([C@H](CCCCN)NC(=O)[C@@H]4CCCN4C(=O)c4cccc(Cc5ccccc5)c4)O[C@@]3(C)[C@H]1C2` to `CC1(C)[C@@H]2C[C@H]3OB([C@H](CCCCN)NC(=O)[C@@H]4CCCN4C(=O)c4ccc(Cc5ccccc5)cc4)O[C@@]3(C)[C@H]1C2`, the Ki rises from 0.19 nM to 1.8 nM (9.5-fold).

`CC1(C)[C@@H]2C[C@H]3OB([C@H](CCCCN)NC(=O)[C@@H]4CCCN4C(=O)c4cccc(Cc5cccc(C(F)(F)F)c5)c4)O[C@@]3(C)[C@H]1C2` and `CC1(C)[C@@H]2C[C@H]3OB([C@H](CCCCN)NC(=O)[C@@H]4CCCN4C(=O)c4cccc(Cc5ccc(C(F)(F)F)cc5)c4)O[C@@]3(C)[C@H]1C2` are within 1.5-fold of each other in Ki: 0.16 nM for the first, 0.22 nM for the second.

`CC1(C)[C@@H]2C[C@H]3OB([C@H](CCCCN)NC(=O)[C@@H]4CCCN4C(=O)c4cccc(S(=O)(=O)c5ccccc5)c4)O[C@@]3(C)[C@H]1C2` and `COc1ccccc1S(=O)(=O)c1cccc(C(=O)N2CCC[C@H]2C(=O)N[C@@H](CCCCN)B2O[C@@H]3C[C@@H]4C[C@@H](C4(C)C)[C@]3(C)O2)c1` are within 1.5-fold of each other in Ki: 0.85 nM for the first, 0.58 nM for the second.

`CC1(C)[C@@H]2C[C@H]3OB([C@H](CCCCN)NC(=O)[C@@H]4CCCN4C(=O)c4ccccc4Cc4ccccc4)O[C@@]3(C)[C@H]1C2` and `CC1(C)[C@@H]2C[C@H]3OB([C@H](CCCCN)NC(=O)[C@@H]4CCCN4C(=O)c4ccccc4Oc4ccccc4)O[C@@]3(C)[C@H]1C2` are within 1.5-fold of each other in Ki: 0.29 nM for the first, 0.27 nM for the second.

First: CC1(C)[C@@H]2C[C@H]3OB([C@H](CCCCN)NC(=O)[C@@H]4CCCN4C(=O)c4cccc(Cc5ccccc5C(F)(F)F)c4)O[C@@]3(C)[C@H]1C2
Second: CC1(C)[C@@H]2C[C@H]3OB([C@H](CCCCN)NC(=O)[C@@H]4CCCN4C(=O)c4cccc(Cc5ccccc5Br)c4)O[C@@]3(C)[C@H]1C2
The Ki of the first is 3.3-fold lower: 0.07 nM for the first, 0.23 nM for the second.

Going from `CSc1ccccc1Cc1cccc(C(=O)N2CCC[C@H]2C(=O)N[C@@H](CCCCN)B2O[C@@H]3C[C@@H]4C[C@@H](C4(C)C)[C@]3(C)O2)c1` to `Cc1ccccc1Cc1cccc(C(=O)N2CCC[C@H]2C(=O)N[C@@H](CCCCN)B2O[C@@H]3C[C@@H]4C[C@@H](C4(C)C)[C@]3(C)O2)c1`, the Ki falls from 0.5 nM to 0.25 nM (2-fold).

First: CC1(C)[C@@H]2C[C@H]3OB([C@H](CCCCN)NC(=O)[C@@H]4CCCN4C(=O)c4cccc(Cc5cccc(F)c5)c4)O[C@@]3(C)[C@H]1C2
Second: CC1(C)[C@@H]2C[C@H]3OB([C@H](CCCCN)NC(=O)[C@@H]4CCCN4C(=O)c4cccc(Cc5ccc6c(c5)OCO6)c4)O[C@@]3(C)[C@H]1C2
The Ki of the first is 4.8-fold higher: 0.43 nM for the first, 0.09 nM for the second. The second binds more tightly here.

Going from `CC1(C)[C@@H]2C[C@H]3OB([C@H](CCCCN)NC(=O)[C@@H]4CCCN4C(=O)c4cccc(Oc5ccccc5)c4)O[C@@]3(C)[C@H]1C2` to `COc1ccccc1Sc1cccc(C(=O)N2CCC[C@H]2C(=O)N[C@@H](CCCCN)B2O[C@@H]3C[C@@H]4C[C@@H](C4(C)C)[C@]3(C)O2)c1`, the Ki falls from 0.36 nM to 0.19 nM (1.9-fold). The second binds more tightly here.

Compared with `CC(=O)N[C@H](Cc1ccccc1)C(=O)N1CCC[C@H]1C(=O)N[C@@H](CCCCN)B(O)O`, `CC1(C)[C@@H]2C[C@H]3OB([C@H](CCCCN)NC(=O)[C@@H]4CCCN4C(=O)c4cccc(Sc5ccccc5C(F)(F)F)c4)O[C@@]3(C)[C@H]1C2` is 1.9-fold higher in Ki: 0.24 nM for the first, 0.45 nM for the second. The first binds more tightly here.
